From PubChem BioAssay AID1845211 (Molecular Pharmacology Branch, DTP, NCI, 2023)
Where “and” joins values, the source holds several entries; their conditions need not be identical. Identical values can stand only once.

Test system: NCI-H322M multicellular tumor spheroids, viability (% test/control)
Experiment: Anticancer human tumor NCI-H322M cell line growth inhibition;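 for viability, T/C: spheroids exposed to compound for seven days before readout; 100% = DMSO vehicle control wells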
Conditions: for viability, T/C: stronger effect = lower value
How it was run: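 Complex spheroids of malignant cells with endothelial cells and mesenchymal stem cells; agents alone or combined, from near clinical Cmax (or 10 microM if unknown) down in half-log steps, 0.25% DMSO final.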

[1] = compound alone, run of 12/12/2019

`CC[C@@]1(O)C(=O)OCc2c1cc1n(c2=O)Cc2cc3c(CN(C)C)c(O)ccc3nc2-1` was tested, and the viability, T/C (compound 0.003 µM) was 89.7% [middle of 10 runs], the viability, T/C (compound 0.0949 µM) was 67.4% [middle of 10 runs] and the viability, T/C (compound 0.3 µM) was 51.5% [middle of 10 runs]. The IC50 [1] was > 300 nM and 254 nM.
`Cc1sc2c(c1C)C(c1ccc(Cl)cc1)=NC(CC(=O)Nc1ccc(O)cc1)c1nnc(C)n1-2` (configuration not stated) was tested, and the viability, T/C (compound 0.00949 µM) was 106% and 134% and 101%, the viability, T/C (compound 0.03 µM) was 114% and 110% and 109% and the viability, T/C (compound 0.0949 µM) was 122% and 129% and 130%. For the same molecule, the viability, T/C (compound 0.3 µM) was 112% and 114% and 116%, the viability, T/C (compound 0.949 µM) was 86.2% and 95.3% and 76% and the viability, T/C (compound 3 µM) was 75.4% and 80.9% and 64%. It also gave an IC50 (curve of compound) greater than 3000 nM.
With `COc1ccc([C@@H](O)c2cc(-c3ncnc4cc(N5CCOCC5)ccc34)c(F)cc2Cl)nn1` + COc1cc2c(cc1O)CCNC21CSC2c3c(OC(C)=O)c(C)c4c(c3C(COC1=O)N1C(O)C3Cc5cc(C)c(OC)c(O)c5C(C21)N3C)OCO4 the IC50 (curve of first compound, second compound 30 pM) was 2340 nM, the IC50 (curve of first compound, second compound 94.9 pM) was 1640 nM and the IC50 (curve of first compound, second compound 0.0003 µM) was 1400 nM. The IC50 (curve of first compound, second compound 0.000949 µM) was 433 nM, the IC50 (curve of first compound, second compound 0.003 µM) was less than 31.6 nM and the viability, T/C (second compound 30 pM, first compound 0.0316 µM) was 101%. The viability, T/C (second compound 30 pM, first compound 0.1 µM) was 75.9%, the viability, T/C (second compound 30 pM, first compound 0.316 µM) was 79.1% and the viability, T/C (second compound 30 pM, first compound 1 µM) was 62.1%. For the same molecule, the viability, T/C (second compound 30 pM, first compound 3.16 µM) was 45.3%, the viability, T/C (second compound 30 pM, first compound 10 µM) was 30.4% and the viability, T/C (second compound 94.9 pM, first compound 0.0316 µM) was 96%. For the same molecule, the viability, T/C (second compound 94.9 pM, first compound 0.1 µM) was 89.1%, the viability, T/C (second compound 94.9 pM, first compound 0.316 µM) was 82.2% and the viability, T/C (second compound 94.9 pM, first compound 1 µM) was 55.8%. It also gave a viability, T/C (second compound 94.9 pM, first compound 3.16 µM) of 41.5%, a viability, T/C (second compound 94.9 pM, first compound 10 µM) of 32% and a viability, T/C (second compound 0.0003 µM, first compound 0.0316 µM) of 106%. It also gave a viability, T/C (second compound 0.0003 µM, first compound 0.1 µM) of 94.1%, a viability, T/C (second compound 0.0003 µM, first compound 0.316 µM) of 71.1% and a viability, T/C (second compound 0.0003 µM, first compound 1 µM) of 56.4%. The viability, T/C (second compound 0.0003 µM, first compound 3.16 µM) was 38.2%, the viability, T/C (second compound 0.0003 µM, first compound 10 µM) was 26.8% and the viability, T/C (second compound 0.000949 µM, first compound 0.0316 µM) was 84.2%. It also gave a viability, T/C (second compound 0.000949 µM, first compound 0.1 µM) of 75.7%, a viability, T/C (second compound 0.000949 µM, first compound 0.316 µM) of 58.7% and a viability, T/C (second compound 0.000949 µM, first compound 1 µM) of 28.3%. It also gave a viability, T/C (second compound 0.000949 µM, first compound 3.16 µM) of 5.57%, a viability, T/C (second compound 0.000949 µM, first compound 10 µM) of 2.25% and a viability, T/C (second compound 0.003 µM, first compound 0.0316 µM) of 3.77%. The viability, T/C (second compound 0.003 µM, first compound 0.1 µM) was 3.3%, the viability, T/C (second compound 0.003 µM, first compound 0.316 µM) was 5.4% and the viability, T/C (second compound 0.003 µM, first compound 1 µM) was 1.15%. For the same molecule, the viability, T/C (second compound 0.003 µM, first compound 3.16 µM) was 1.98% and the viability, T/C (second compound 0.003 µM, first compound 10 µM) was 2.69%.
In the case of `COc1cc2c(cc1O)CCNC21CSC2c3c(OC(C)=O)c(C)c4c(c3C(COC1=O)N1C(O)C3Cc5cc(C)c(OC)c(O)c5C(C21)N3C)OCO4` (configuration not stated), the viability, T/C (compound 94.9 pM) is reported as 90.7% [middle of 10 runs], the viability, T/C (compound 0.0003 µM) is reported as 90.7% [middle of 10 runs] and the viability, T/C (compound 0.003 µM) is reported as 7.2% [middle of 10 runs]. For the same molecule, the IC50 [1] was 1.56 nM [middle of 8 runs].
With `O=C(c1cc(Cc2n[nH]c(=O)c3ccccc23)ccc1F)N1CCN(C(=O)C2CC2)CC1` the viability, T/C (compound 0.0949 µM) was 107% and 88% and 75.1%, the viability, T/C (compound 0.3 µM) was 98.5% and 83.7% and 107% and the viability, T/C (compound 0.949 µM) was 118% and 98.6% and 101%. For the same molecule, the viability, T/C (compound 3 µM) was 97.2% and 80.6% and 97.6%, the viability, T/C (compound 9.49 µM) was 97% and 89.6% and 92.4% and the viability, T/C (compound 30 µM) was 103% and 87% and 104%. It also gave an IC50 (curve of compound) greater than 30000 nM.
